Laboratory results as given in publication PMC4076061 (Journal of cellular physiology, 2013).

Columns and labels:
Format in all cases: cell-based
[1] = target: T1, cystic fibrosis transmembrane conductance regulator (CFTR) (Mus musculus, UniProt P26361); assay: whole-cell patch clamp; settings: read-out: % stimulation at 20 μM
[2] = target: T1, cystic fibrosis transmembrane conductance regulator (CFTR)
[3] = target: T1, cystic fibrosis transmembrane conductance regulator (CFTR); assay: whole-cell patch clamp of native Cl- current in mouse sperm; settings: read-out: % inhibition of db-cAMP-stimulated current (at 5 μM)

T1 sequence (P26361 whole entry): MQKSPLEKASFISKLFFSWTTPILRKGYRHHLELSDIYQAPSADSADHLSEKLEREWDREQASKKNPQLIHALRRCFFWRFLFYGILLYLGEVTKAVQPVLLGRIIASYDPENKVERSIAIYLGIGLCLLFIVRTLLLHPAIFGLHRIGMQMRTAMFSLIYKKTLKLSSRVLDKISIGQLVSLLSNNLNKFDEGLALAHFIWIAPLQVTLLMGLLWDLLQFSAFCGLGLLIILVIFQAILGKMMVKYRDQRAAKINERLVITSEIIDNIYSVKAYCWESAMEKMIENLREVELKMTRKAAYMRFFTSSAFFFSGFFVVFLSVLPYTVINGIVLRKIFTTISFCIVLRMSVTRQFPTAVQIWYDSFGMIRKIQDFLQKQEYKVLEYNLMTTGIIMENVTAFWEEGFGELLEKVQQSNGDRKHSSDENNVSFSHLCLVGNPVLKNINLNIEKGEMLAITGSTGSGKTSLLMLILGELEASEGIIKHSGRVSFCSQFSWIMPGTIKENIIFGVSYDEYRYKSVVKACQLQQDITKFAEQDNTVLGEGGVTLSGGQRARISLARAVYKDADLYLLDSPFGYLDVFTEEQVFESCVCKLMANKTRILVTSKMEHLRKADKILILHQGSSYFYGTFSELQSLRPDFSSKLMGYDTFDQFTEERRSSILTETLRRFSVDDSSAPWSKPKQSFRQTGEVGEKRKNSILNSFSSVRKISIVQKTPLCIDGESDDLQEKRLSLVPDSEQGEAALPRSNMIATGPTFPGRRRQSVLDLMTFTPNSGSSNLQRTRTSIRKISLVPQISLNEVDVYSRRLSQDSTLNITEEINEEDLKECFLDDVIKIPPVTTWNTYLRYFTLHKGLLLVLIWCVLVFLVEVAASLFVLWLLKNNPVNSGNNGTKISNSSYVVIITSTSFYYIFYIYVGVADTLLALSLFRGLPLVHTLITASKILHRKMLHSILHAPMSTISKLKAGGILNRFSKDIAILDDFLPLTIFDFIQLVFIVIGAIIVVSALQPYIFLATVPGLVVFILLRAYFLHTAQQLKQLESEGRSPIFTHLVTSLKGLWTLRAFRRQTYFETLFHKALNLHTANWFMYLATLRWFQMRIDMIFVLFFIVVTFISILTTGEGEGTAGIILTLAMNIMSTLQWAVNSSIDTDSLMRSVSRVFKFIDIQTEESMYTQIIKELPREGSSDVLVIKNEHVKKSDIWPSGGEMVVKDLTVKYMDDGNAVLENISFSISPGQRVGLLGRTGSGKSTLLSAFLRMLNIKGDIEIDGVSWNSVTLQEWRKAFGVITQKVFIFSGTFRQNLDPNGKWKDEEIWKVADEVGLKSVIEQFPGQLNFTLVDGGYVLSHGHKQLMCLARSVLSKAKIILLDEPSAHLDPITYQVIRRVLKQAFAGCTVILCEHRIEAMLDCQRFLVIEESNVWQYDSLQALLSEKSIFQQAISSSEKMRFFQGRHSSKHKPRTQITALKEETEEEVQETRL

Molecule O=c1c(-c2ccc(O)cc2)coc2cc(O)cc(O)c12 [genistein] has an activation at 20 µM [1] of 54 ± 0.5%.
Work on O=C(O)c1ccccc1Nc1ccccc1 [DPC] yielded an IC50 [2] of ~175 µM.
Molecule O=C(O)c1ccc(/C=C2\SC(=S)N(c3cccc(C(F)(F)F)c3)C2=O)cc1 [CFTRinh-172, 3-[(3-trifluoromethyl)phenyl]-5-[(4 carboxyphenyl)methylene]-2-thioxo-4thiazolidinone] has an inhibition at 5 µM [3] of 60%.
